Experimental data as given in patent US4686215A, “Pharmaceutical composition and method for treating tumors susceptible to 2-carbamoylaziridine” (priority 1976, dated 1987).

Key:
carcinosarcoma DS = conditions: known drugs, prior art; cited from earlier work
[1] = prior art compound; cited from earlier work
toxicity (LD50) = format: in vivo; conditions: compared with prior art
SA-45 = assay: action in rats with SA-45 at late stages of tumor development (17 days after implantation); format: in vivo, rat; conditions: group II; 10 animals; i.v. 1500 mg/kg, 17 days after tumor implantation
Experimental: (§1) Non-linear male rats with the starting weight 120-150 g were used in the experiments described hereinunder in Examples 1-4. All the animals were administered intravenously a single dose of the pharmaceutical composition in the form of the concentrated solution (10-30%) of the active principle in distilled water at a rate of 1500 mg/kg. The animals were decapitated on the 20th say from the day of the administration. All the animals received the usual laboratory ration.
The action of the pharmaceutical composition consisting of 30% solution of the active principle above formula where R is NH2, in distilled water was tested in rats with SA-45 at late stages of tumor development. The composition was administered 17 days after tumor implantation. The results of the experiment are presented in Table 4 where I--control animals, II--rats which were administered the pharmaceutical composition.

implanted SA-45 = assay: action in rats with implanted SA-45 at early stages of tumor development (48 hours after implantation); format: in vivo, rat; conditions: group II; 10 animals; i.v. 1500 mg/kg, 48 hours after tumor implantation
Experimental: as §1
The action of the same pharmaceutical composition as in Example 1 was tested in rats with implanted SA-45 at early stages of tumor development. The pharmaceutical composition was administered 48 hours after tumor implantation. The results of the experiment are presented in Table 3, where I--control group, II--rats which were administered pharmaceutical composition.

implanted RMCC-1 = assay: action in rats with implanted RMCC-1 at late stage of tumor development (15 days after implantation); format: in vivo, rat; conditions: group II, i.v. 1500 mg/kg
Experimental: as §1
The action of the same pharmaceutical composition as in Example 1 was tested in rats with implanted RMCC-1 at late stage of tumor development. The pharmaceutical composition was administered 15 days after tumor implanatation, the average weight of the tumor being 35 g. The groups of the animals are designated as in Example 1. None of the controls survived till the day of decapitation (the 20th day after the administration of the pharmaceutical composition to group II).

[2] = test system: implanted mammary gland cancer (RMGC-1); assay: action on tumor growth in rats with implanted mammary gland cancer RMGC-1, early stage (24 hours after implantation); format: in vivo, rat; conditions: 10 animals
Experimental: as §1
The action of the pharmaceutical composition consisting of 30% solution of the active principle of the above formula where R is NHNH2, in distilled water on tumor growth was tested in rats with implanted mammary gland cancer (RMGC-1). The results of the experiments are presented in Table 1, where I--control animals, II--rats which were administered the pharmaceutical composition, III--rats which were administered the same composition against the background of 90 minutes' hyperglycemia. The animals of groups II and III were administered the composition 24 hours after tumor implantation.

[3] = 6 animals, 15 days after tumor implantation, average tumor weight 35 g
[4] = group II, single i.v. dose 1500 mg/kg, 24 hours after tumor implantation, 20th day
[5] = group III, against the background of 90 minutes' hyperglycemia, i.v. 1500 mg/kg, 24 hours after implantation

N#CC1CN1C(N)=O (centres unmarked) [1-carbamoyl-2-cyano-aziridine]
cure of rats with carcinosarcoma DS (carcinosarcoma DS): 47.4%
LD50 [1]: 1 250 mg/kg

NC(=O)C1CN1 (centres unmarked) [2-carbamoylaziridine]
therapeutic index (toxicity (LD50)): considerably higher
Complete disappearance of the tumor (animals) (SA-45): 6
No effect (animals) (SA-45): 2
Partial disappearance of the tumor (animals) (SA-45): 2

NNC(=O)C1CN1 (centres unmarked) [active principle where R is NHNH2]
Complete disappearance of the tumor (animals) (implanted SA-45): 3
No effect (animals) (implanted SA-45): 4
Partial disappearance of the tumor (animals) (implanted SA-45): 3
Life time increased by (implanted RMCC-1; animals with partial disappearance of the tumor, 15 days after implantation): 50%
Complete disappearance of the tumor (animals) (implanted RMCC-1; [3]): 3
Partial disappearance of the tumor (animals) (implanted RMCC-1; [3]): 3
Complete disappearance of the tumor (animals) [2, 4]: 8
No effect (animals) [2, 4]: 2
Complete disappearance of the tumor (animals) [2, 5]: 7
No effect (animals) [2, 5]: 1
Partial disappearance of the tumor (animals) [2, 5]: 2
